Patent publication US9914755B2, “Cyclosporin derivatives wherein the MeBmt sidechain has been cyclized” (Allergan, Inc., priority 2015, dated 2018)
Converted amounts (≈) assume the structure as drawn. Where two headings read alike, the source gives them in different places.

Key:
[1] = biological target: T1, Human recombinant cyclophilin A (CypA) (Homo sapiens, UniProt P62937); assay: Protease-free PPIase assay, cyclophilin A; assay type: biochemical
T1 construct: purchased Sigma C3805

[2] = Water Solubility Assay (onset of precipitation in buffer); settings: 25 °C, pH 7.4, aqueous buffer, kinetic from dmso stock
Method: (§1) The aqueous solubility of a compound of Formula I in buffer (pH 7.8) was measured by recording the onset of precipitation of the compound as a function of increasing concentration. The onset of precipitation, if it occurred, was detected by an increase in absorbance at 650 nm.
(§2) Stock solutions of Control and Test Compounds: 10 mM in 100% DMSO.
(§3) 10 mM stock solutions of control and test compounds were prepared in 100% DMSO.
(§4) Assay buffer (247.5 μl) was placed into a flat bottomed transparent 96-well plate. For blank samples, DMSO (2.5 μl) was added. For test and control samples, 2.5 μl of the appropriate DMSO dilution stocks were added to the appropriate well. All test and control compounds were performed in triplicate.
(§5) The plates were sealed with adhesive plate seal and shaken at 250 rpm at 25° C. for 18 h on a plate shaker. After incubation, the plate seals were taken off and any bubbles observed in wells removed. The plates were read on a SpectraMaxM5 with a 5 s pre-shake at 650 nm.
(§6) Data files were transferred to the appropriate worksheet and the solubility range of the compounds was calculated from the data.

[3] = biological target: T2, Human recombinant 6-His tagged cyclophilin D (CypD) (Homo sapiens, UniProt P30405); assay: Protease-free PPIase assay, cyclophilin D; assay type: biochemical
T2 construct: 6-His
T2 sequence (P30405 30-207): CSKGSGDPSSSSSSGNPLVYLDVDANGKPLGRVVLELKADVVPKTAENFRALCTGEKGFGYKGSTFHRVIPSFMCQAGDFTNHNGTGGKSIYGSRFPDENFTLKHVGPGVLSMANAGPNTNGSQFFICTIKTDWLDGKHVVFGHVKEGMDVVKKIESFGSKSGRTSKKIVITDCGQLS
Procedure, shortened: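 Cis-trans isomerisation of SUC-AAPF-pNA followed at 330 nm in 35 mM HEPES pH 7.8 with 50 μM DTT, at 10.0 °C, ≤0.5% DMSO. Catalytic rate = fitted first-order constant minus background; Ki from exponential fit of catalytic rate versus inhibitor concentration. CypD was 6-His tagged.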

[4] = physchem; settings: 25 °C, pH 7.4, aqueous buffer, kinetic from dmso stock
Method: as §1, §2, §3, §4, §5, §6

[5] = biological target: T3, calcineurin (Homo sapiens, UniProt P62937+P63098+Q08209); assay: Calcineurin Phosphatase (CaN) Assay; assay type: biochemical; settings: in the presence of CypA, 1:1 complex of inhibitor with CypA
T3 construct: purchased Enzo Life Sciences BML-AK804

T1 sequence (P62937 whole entry): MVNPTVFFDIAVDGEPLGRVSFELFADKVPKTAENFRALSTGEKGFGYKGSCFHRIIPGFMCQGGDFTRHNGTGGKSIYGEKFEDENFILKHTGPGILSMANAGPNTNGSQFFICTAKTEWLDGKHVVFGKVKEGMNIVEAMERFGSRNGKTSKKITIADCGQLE

Row | Structure (SMILES) | Ki [1] | solubility at 18 h [2] | Ki [3] | solubility at 18 h [4] | Ki ([1]; human recombinant CypA, 10 °C, SUC-AAPF-pNA substrate, read-out: CypA Protease-free PPIase Assay Ki) | IC50 [5] | Ki ([3]; human recombinant 6-His CypD, 10 °C, SUC-AAPF-pNA substrate, read-out: CypD Protease-free PPIase Assay Ki)
1 | CC(C)C[C@@H]1C(=O)N(C)[C@H](CC(C)C)C(=O)N(C)[C@H](C(C)C)C(=O)N(C)[C@H]([C@@H]2OCC[C@H]2C)C(=O)N[C@H](C)C(=O)N(C)CC(=O)N(C)[C@@H](CC(C)C)C(=O)N[C@H](C(C)C)C(=O)N(C)[C@H](CC(C)C)C(=O)N[C@H](C)C(=O)N[C@@H](C)C(=O)N1C [Compound 9, [(2S)-2-(methylamino)-2-[(2R,3R)-3-methyltetrahydrofuran-2-yl]acetic acid]^1 cyclosporin B] | 8.6 µM | > 100 µM | 200 nM | – | – | – | –
2 | CC[C@H]1NC(=O)[C@@H](C2OC(C)C[C@H]2C)N(C)C(=O)[C@@H](C(C)C)N(C)C(=O)[C@@H](CC(C)C)N(C)C(=O)[C@@H](CC(C)C)N(C)C(=O)[C@H](C)NC(=O)[C@@H](C)NC(=O)[C@@H](CC(C)C)N(C)C(=O)[C@@H](C(C)C)NC(=O)[C@H](CC(C)C)N(C)C(=O)[C@@H](C)N(C)C1=O (stereo partly drawn) [Compound 26, [(2S)-2-[(2R,3R)-3,5-dimethyltetrahydrofuran-2-yl]-2-(methylamino)acetic acid]^1 [(R)-methyl-Sar]^3 cyclosporin A] | – | – | – | 75 µM (≈ 90.2 µg/mL) | 0.275 µM | > 10 µM | 64 nM
